Among the data in patent US12679822B2, “Alkenyl pyrimidine compound, preparation method therefor, and application thereof” (Hongyun Biotech Co., Ltd., priority 2020, dated 2026) are GI50 values, retold here.

Common to all, as to type: cell-based
For assay [1], the target named is BaF3 cell lines stably transfected with kinase EGFR L858R/T790M (Homo sapiens, UniProt P00533, T790M/L858R, cells depend on it). Briefly: Growth inhibition of BaF3 cell line stably transfected with kinase EGFR L858R/T790M (MTS). As to conditions: 48 h, read-out: growth inhibitory activity IC50, L858R/T790M. The gist of the method:
(§1)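 Compounds tested at 8 concentrations, top 10 μM with stepwise ⅓ dilution, 0.1% DMSO, for 48 h at 37 °C, 5% CO2. MTS/PES reagent then added for 1-4 h and OD read at 490 nm. Inhibition calculated against DMSO and cell-free blank controls; IC50 fitted from inhibition rates.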

Assay [2] addresses BaF3 cell lines stably transfected with kinase EGFR L858R (Homo sapiens, UniProt P00533, L858R, cells depend on it). Briefly: Growth inhibition of BaF3 cell line stably transfected with kinase EGFR L858R (MTS). As to conditions: 48 h, read-out: growth inhibitory activity IC50, L858R. The procedure, abridged:
as §1

Assay [3] concerns the target BaF3 cell lines stably transfected with kinase EGFR Del (Homo sapiens, UniProt P00533, cells depend on it, form not given). Briefly: Growth inhibition of BaF3 cell line stably transfected with kinase EGFR Del (MTS). The settings on record: 48 h, read-out: growth inhibitory activity IC50, Del. The gist of the method:
as §1

Assay [4] has as its target BaF3 cell lines stably transfected with kinase EGFR Del/T790M (Homo sapiens, UniProt P00533, T790M, cells depend on it, form not given). Briefly: Growth inhibition of BaF3 cell line stably transfected with kinase EGFR Del/T790M (MTS). The settings on record: 48 h, read-out: growth inhibitory activity IC50, Del/T790M. The procedure, abridged:
as §1

The target of assay [5] is BaF3 cell lines stably transfected with kinase EGFR L858R/T790M/C797S (Homo sapiens, UniProt P00533, T790M/C797S/L858R, cells depend on it). Briefly: Growth inhibition of BaF3 cell line stably transfected with kinase EGFR L858R/T790M/C797S (MTS). The settings on record: 48 h, read-out: growth inhibitory activity IC50, L858R/T790M/C797S. The gist of the method:
as §1

In assay [6] the target is BaF3 cell lines stably transfected with kinase EGFR Del/T790M/C797S (Homo sapiens, UniProt P00533, T790M/C797S, cells depend on it, form not given). Briefly: Growth inhibition of BaF3 cell line stably transfected with kinase EGFR Del/T790M/C797S (MTS). The settings on record: 48 h, read-out: growth inhibitory activity IC50, Del/T790M/C797S. The procedure, abridged: as §1
BaF3 cell lines stably transfected with kinase EGFR Del/T790M/C797S, sequence (P00533 with tags, fused parts or gaps DEL746-750/T790M/C797S, form open): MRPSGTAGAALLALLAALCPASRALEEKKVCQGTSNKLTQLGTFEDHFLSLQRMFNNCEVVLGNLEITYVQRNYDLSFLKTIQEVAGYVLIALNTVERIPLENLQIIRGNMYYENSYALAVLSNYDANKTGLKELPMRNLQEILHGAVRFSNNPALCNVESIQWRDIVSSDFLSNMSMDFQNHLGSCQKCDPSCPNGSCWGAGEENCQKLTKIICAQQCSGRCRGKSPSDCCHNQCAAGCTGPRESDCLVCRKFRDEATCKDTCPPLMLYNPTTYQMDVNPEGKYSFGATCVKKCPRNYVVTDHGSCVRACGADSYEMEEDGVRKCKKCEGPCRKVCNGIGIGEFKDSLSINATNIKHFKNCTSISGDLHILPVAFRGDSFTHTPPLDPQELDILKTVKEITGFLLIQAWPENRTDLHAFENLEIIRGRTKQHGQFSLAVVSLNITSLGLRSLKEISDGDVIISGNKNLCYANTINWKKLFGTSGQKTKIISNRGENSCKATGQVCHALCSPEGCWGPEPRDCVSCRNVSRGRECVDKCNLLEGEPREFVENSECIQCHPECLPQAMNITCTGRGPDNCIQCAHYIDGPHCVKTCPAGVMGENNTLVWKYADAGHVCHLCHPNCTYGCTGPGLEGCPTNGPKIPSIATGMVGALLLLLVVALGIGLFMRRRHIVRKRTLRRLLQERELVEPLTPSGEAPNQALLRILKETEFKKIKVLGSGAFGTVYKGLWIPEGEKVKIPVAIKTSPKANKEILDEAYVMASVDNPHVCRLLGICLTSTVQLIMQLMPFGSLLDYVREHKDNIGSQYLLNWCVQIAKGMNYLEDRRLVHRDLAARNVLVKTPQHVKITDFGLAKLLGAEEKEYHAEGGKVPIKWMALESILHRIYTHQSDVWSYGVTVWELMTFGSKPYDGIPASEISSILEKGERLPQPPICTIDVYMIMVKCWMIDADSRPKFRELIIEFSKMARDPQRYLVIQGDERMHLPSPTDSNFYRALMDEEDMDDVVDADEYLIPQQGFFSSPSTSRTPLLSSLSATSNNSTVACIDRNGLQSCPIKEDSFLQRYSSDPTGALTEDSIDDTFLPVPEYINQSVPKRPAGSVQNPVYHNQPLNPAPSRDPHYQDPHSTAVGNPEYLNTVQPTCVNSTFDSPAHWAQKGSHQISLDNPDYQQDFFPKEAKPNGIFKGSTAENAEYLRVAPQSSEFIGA

BaF3 cell lines stably transfected with kinase EGFR Del/T790M, sequence (P00533 with tags, fused parts or gaps DEL746-750/T790M, form open): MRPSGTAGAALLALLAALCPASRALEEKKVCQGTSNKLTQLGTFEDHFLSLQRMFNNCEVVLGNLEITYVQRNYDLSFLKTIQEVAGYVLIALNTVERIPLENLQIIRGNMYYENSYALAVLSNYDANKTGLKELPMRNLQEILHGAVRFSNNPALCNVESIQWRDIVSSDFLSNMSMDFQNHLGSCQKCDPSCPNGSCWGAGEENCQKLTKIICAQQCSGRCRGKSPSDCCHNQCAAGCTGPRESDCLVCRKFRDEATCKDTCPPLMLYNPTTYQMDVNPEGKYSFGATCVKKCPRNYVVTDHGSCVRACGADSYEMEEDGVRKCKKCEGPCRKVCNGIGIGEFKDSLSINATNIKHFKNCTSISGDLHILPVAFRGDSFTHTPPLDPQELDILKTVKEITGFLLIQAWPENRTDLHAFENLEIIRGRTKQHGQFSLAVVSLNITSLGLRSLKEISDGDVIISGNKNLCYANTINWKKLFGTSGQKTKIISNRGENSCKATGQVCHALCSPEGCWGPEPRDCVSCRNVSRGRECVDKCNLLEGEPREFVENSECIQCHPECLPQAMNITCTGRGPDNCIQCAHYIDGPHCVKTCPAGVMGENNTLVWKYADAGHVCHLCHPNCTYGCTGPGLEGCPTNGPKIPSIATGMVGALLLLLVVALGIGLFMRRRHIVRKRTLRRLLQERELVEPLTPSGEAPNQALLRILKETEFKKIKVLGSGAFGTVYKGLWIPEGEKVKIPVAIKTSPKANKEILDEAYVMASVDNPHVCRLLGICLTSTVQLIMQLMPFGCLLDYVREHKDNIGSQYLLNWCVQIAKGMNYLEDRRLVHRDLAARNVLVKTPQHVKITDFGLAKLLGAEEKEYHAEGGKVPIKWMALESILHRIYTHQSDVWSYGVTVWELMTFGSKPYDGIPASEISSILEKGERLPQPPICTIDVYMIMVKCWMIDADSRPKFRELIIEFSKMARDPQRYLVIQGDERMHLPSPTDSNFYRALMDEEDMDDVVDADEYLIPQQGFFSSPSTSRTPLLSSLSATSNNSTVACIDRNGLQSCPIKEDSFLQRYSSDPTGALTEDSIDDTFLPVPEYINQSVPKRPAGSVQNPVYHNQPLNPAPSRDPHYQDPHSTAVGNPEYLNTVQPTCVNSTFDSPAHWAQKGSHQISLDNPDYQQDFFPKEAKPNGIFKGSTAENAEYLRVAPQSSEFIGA
BaF3 cell lines stably transfected with kinase EGFR Del, sequence (P00533 with tags, fused parts or gaps DEL746-750): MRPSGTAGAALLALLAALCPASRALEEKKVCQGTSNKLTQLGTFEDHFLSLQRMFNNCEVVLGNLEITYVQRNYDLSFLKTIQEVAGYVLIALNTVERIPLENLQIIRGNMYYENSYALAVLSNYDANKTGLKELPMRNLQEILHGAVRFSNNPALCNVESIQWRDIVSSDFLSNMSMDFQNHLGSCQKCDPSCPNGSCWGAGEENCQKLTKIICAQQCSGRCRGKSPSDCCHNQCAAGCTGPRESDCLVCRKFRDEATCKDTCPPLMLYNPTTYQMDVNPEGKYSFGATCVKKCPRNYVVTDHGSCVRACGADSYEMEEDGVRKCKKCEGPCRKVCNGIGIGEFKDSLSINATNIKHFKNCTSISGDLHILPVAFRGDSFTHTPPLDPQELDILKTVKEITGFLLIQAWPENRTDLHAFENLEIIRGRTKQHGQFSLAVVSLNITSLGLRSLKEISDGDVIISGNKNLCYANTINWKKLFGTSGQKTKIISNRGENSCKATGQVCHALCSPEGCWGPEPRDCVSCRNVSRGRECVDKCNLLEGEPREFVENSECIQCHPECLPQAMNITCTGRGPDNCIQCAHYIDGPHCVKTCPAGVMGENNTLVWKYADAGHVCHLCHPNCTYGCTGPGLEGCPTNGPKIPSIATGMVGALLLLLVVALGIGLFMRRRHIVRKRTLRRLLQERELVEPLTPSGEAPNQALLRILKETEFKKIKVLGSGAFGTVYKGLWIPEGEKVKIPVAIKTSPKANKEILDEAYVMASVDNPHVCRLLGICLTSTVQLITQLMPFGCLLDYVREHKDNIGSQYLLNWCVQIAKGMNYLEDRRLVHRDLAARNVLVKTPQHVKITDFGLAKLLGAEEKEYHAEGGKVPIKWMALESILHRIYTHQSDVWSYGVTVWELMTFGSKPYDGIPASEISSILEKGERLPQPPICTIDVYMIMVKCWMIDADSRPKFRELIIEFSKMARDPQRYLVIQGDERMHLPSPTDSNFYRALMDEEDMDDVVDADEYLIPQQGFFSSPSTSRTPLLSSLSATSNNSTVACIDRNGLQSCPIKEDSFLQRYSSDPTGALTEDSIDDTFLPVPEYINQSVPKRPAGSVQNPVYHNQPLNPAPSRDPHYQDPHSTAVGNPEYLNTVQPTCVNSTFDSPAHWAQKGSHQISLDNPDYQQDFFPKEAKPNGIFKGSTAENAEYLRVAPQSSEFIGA
BaF3 cell lines stably transfected with kinase EGFR L858R/T790M, sequence (P00533 whole entry T790M/L858R): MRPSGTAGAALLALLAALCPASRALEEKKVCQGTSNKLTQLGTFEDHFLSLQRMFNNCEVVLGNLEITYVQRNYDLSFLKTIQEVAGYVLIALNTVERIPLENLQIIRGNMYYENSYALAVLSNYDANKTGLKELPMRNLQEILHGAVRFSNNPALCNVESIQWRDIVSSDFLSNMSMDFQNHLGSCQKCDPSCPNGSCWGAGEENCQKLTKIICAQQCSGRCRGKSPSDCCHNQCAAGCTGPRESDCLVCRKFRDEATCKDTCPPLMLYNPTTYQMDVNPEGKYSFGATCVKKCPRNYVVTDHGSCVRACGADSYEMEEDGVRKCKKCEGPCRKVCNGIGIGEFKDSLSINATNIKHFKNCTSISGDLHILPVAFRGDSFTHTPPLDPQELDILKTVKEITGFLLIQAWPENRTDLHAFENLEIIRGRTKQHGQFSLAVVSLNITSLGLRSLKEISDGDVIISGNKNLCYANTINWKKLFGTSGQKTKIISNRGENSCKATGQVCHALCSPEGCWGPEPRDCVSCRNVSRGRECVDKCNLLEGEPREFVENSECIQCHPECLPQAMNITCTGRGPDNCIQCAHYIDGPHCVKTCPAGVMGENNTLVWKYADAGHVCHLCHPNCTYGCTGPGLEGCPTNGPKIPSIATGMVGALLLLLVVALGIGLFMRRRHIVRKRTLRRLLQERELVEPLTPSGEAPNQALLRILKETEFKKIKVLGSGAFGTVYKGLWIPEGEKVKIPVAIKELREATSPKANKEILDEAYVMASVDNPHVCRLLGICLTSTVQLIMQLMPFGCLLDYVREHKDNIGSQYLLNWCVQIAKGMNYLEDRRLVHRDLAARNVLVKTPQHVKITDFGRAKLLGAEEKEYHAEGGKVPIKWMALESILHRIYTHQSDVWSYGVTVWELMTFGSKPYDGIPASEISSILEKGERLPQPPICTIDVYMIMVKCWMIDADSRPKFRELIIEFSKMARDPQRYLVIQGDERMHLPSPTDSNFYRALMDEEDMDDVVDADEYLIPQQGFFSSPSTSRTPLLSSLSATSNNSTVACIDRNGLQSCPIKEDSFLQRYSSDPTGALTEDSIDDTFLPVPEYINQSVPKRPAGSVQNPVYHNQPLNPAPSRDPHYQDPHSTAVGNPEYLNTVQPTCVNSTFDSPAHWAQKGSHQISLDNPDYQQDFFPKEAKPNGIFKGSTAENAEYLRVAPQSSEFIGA

As to `C=Cc1cnc(Nc2cn(CC)nc2C)nc1Nc1ccc2nccnc2c1N(C)S(C)(=O)=O` [II-68], the GI50 in assay [1] fell in the range of 0.5 to 2.5 µM; in assay [2], 0.05 to 0.5 µM; in assay [3] it was 0.05 to 0.5 µM; in assay [4], 0.5 to 2.5 µM; in assay [5] it was 0.05 to 0.5 µM; in assay [6] it was 0.05 to 0.5 µM.

As to `C=Cc1cnc(Nc2cc(C)c(N3CCC(N4CCN(C)CC4)CC3)cc2OC)nc1Nc1ccc2nccnc2c1NS(C)(=O)=O` [II-31], the GI50 in assay [1] is 0.05 to 0.5 µM; in assay [2], ≤ 0.05 µM; in assay [3] it was ≤ 0.05 µM; in assay [4], ≤ 0.05 µM; in assay [5], ≤ 0.05 µM; in assay [6], 0.05 to 0.5 µM.

For `C=Cc1cnc(Nc2ccc3c(c2)CN(C)CC3)nc1Nc1ccc2nccnc2c1N(C)S(C)(=O)=O` [II-77], the GI50 in assay [1] was ≤ 0.05 µM; in assay [2], ≤ 0.05 µM; in assay [3], ≤ 0.05 µM; in assay [4], ≤ 0.05 µM; in assay [5], ≤ 0.05 µM; in assay [6] it was 0.05 to 0.5 µM.

Take `C=Cc1cnc(Nc2ccc(N3CCC(N4CCN(C)CC4)CC3)cc2OC)nc1Nc1ccc2nccnc2c1S(=O)(=O)C(C)C` [III-18]: the GI50 in assay [1] lay in the range of 0.05 to 0.5 µM; in assay [2], 0.05 to 0.5 µM; in assay [3] it was 0.5 to 2.5 µM; in assay [4] it was 0.5 to 2.5 µM; in assay [5], 0.5 to 2.5 µM; in assay [6] it was 0.5 to 2.5 µM.

As for `C=Cc1cnc(Nc2cc(CC)c(N3CCC(N(C)C)CC3)cc2OC)nc1Nc1ccc2nccnc2c1S(=O)(=O)NC` [IV-13], the GI50 in assay [1], in assay [2], in assay [3], in assay [4], in assay [5] and in assay [6] was 0.05 to 0.5 µM each time.

For `C=Cc1cnc(Nc2cc3c(cc2OC)CCN(C)C3)nc1Nc1ccc2nccnc2c1N(C)S(C)(=O)=O` [II-73], the GI50 in assay [1] lay in the range of 0.5 to 2.5 µM; in assay [2] it was 0.5 to 2.5 µM; in assay [3], 0.5 to 2.5 µM; in assay [4] it was 0.5 to 2.5 µM; in assay [5], 0.05 to 0.5 µM; in assay [6] it was 0.5 to 2.5 µM.

In the case of `C=Cc1cnc(Nc2cc(CC)c(N3CCC(N4CCN(C)CC4)CC3)cc2OC)nc1Nc1ccc2nccnc2c1S(=O)(=O)NC(C)C` [IV-18], the GI50 lay within 0.05 to 0.5 µM in assay [1]; 0.05 to 0.5 µM in assay [2]; 0.05 to 0.5 µM in assay [3]; 0.05 to 0.5 µM in assay [4]; 0.5 to 2.5 µM in assay [5]; 0.5 to 2.5 µM in assay [6].

Take `C=C(C)c1cnc(Nc2cc[nH]n2)nc1Nc1ccc2nccnc2c1N(C)S(C)(=O)=O` [II-69]: the GI50 was 0.05 to 0.5 µM in assay [1]; 0.05 to 0.5 µM in assay [2]; 0.05 to 0.5 µM in assay [3]; 0.5 to 2.5 µM in assay [4]; 0.05 to 0.5 µM in assay [5]; 0.5 to 2.5 µM in assay [6].

Take `C=Cc1cnc(Nc2cc(C)c(N3CCC(N4CCN(C)CC4)CC3)cc2OC)nc1Nc1ccc2nccnc2c1N(C)S(C)(=O)=O` [II-15]: the GI50 in assay [1], in assay [2], in assay [3], in assay [4], in assay [5] and in assay [6] was ≤ 0.05 µM each time.

Regarding `C=Cc1cnc(Nc2cc(C(C)C)c(N3CCC(N4CCN(C)CC4)CC3)cc2OC)nc1Nc1ccc2nccnc2c1S(C)(=O)=O` [III-11], the GI50 was in the range of 0.05 to 0.5 µM in assay [1]; 0.5 to 2.5 µM in assay [2]; 0.5 to 2.5 µM in assay [3]; 0.5 to 2.5 µM in assay [4]; 0.5 to 2.5 µM in assay [5]; 0.5 to 2.5 µM in assay [6].

Turning to `C=Cc1cnc(Nc2ccc(N3CCC(N4CCN(C)CC4)CC3)cc2OC)nc1Nc1ccc2nccnc2c1NS(=O)(=O)C(C)C` [II-42], the GI50 in assay [1] lay within 0.5 to 2.5 µM; in assay [2], 0.5 to 2.5 µM; in assay [3], 0.5 to 2.5 µM; in assay [4], 0.5 to 2.5 µM; in assay [5] it was 0.05 to 0.5 µM; in assay [6], 0.5 to 2.5 µM.

In the case of `C=Cc1cnc(Nc2cc(C)c(N3CCC(N4CCN(C)CC4)CC3)cc2OC)nc1Nc1ccc2nccnc2c1S(=O)(=O)NC` [IV-2], the GI50 in assay [1], in assay [2], in assay [3], in assay [4], in assay [5] and in assay [6] was 0.05 to 0.5 µM throughout.

As for `C=Cc1cnc(Nc2cc(CC)c(N3CCC(N4CCN(C)CC4)CC3)cc2OC)nc1Nc1ccc2nccnc2c1N(C)S(C)(=O)=O` [II-53], the GI50 was 0.05 to 0.5 µM in assay [1]; 0.05 to 0.5 µM in assay [2]; 0.05 to 0.5 µM in assay [3]; 0.05 to 0.5 µM in assay [4]; ≤ 0.05 µM in assay [5]; ≤ 0.05 µM in assay [6].

As for `C=Cc1cnc(Nc2cc(C3CC3)c(N3CCC(N4CCN(C)CC4)CC3)cc2OC)nc1Nc1ccc2nccnc2c1N(C)S(C)(=O)=O` [II-18], the GI50 in assay [1] was 0.05 to 0.5 µM; in assay [2], 0.05 to 0.5 µM; in assay [3], 0.05 to 0.5 µM; in assay [4], ≤ 0.05 µM; in assay [5], 0.05 to 0.5 µM; in assay [6], 0.05 to 0.5 µM.

With `C=Cc1cnc(Nc2cc(CC)c(N3CCC(N4CCN(C)CC4)CC3)cc2OC)nc1Nc1ccc2nccnc2c1S(=O)(=O)NC` [IV-3], the GI50 in assay [1], in assay [2], in assay [3], in assay [4], in assay [5] and in assay [6] was 0.05 to 0.5 µM each time.

On to `C=Cc1cnc(Nc2cc(C(C)C)c(N3CCC(N4CCN(C)CC4)CC3)cc2OC)nc1Nc1ccc2nccnc2c1P(C)(C)=O` [Compound I-16], for which the GI50 in assay [1], in assay [2], in assay [3], in assay [4], in assay [5] and in assay [6] was 0.05 to 0.5 µM each time.

`C=Cc1cnc(Nc2cc(CC)c(NCCO)cc2OC)nc1Nc1ccc2nccnc2c1N(C)S(C)(=O)=O` [II-49]: the GI50 lay in the range of 0.05 to 0.5 µM in assay [1]; 0.5 to 2.5 µM in assay [2]; 0.5 to 2.5 µM in assay [3]; 0.5 to 2.5 µM in assay [4]; 0.05 to 0.5 µM in assay [5]; 0.05 to 0.5 µM in assay [6].

Take `C=Cc1cnc(Nc2ccc(N3CCC(N4CCN(C)CC4)CC3)c(CC)c2)nc1Nc1ccc2nccnc2c1S(=O)(=O)NC` [IV-9]: the GI50 in assay [1] is ≤ 0.05 µM; in assay [2] it was 0.05 to 0.5 µM; in assay [3], 0.05 to 0.5 µM; in assay [4] it was 0.05 to 0.5 µM; in assay [5], 0.05 to 0.5 µM; in assay [6], 0.05 to 0.5 µM.

Consider `C=Cc1cnc(Nc2cc(CC3CC3)c(N3CCC(N4CCN(C)CC4)CC3)cc2OC)nc1Nc1ccc2nccnc2c1S(C)(=O)=O` [III-13], for which the GI50 fell in the range of 0.05 to 0.5 µM in assay [1]; 0.5 to 2.5 µM in assay [2]; 0.05 to 0.5 µM in assay [3]; 0.05 to 0.5 µM in assay [4]; 0.5 to 2.5 µM in assay [5]; 0.5 to 2.5 µM in assay [6].

With `C=Cc1cnc(Nc2ccc3c(c2)CCN(C)CC3)nc1Nc1ccc2nccnc2c1P(C)(C)=O` [Compound I-24], the GI50 was 0.05 to 0.5 µM in assay [1]; ≤ 0.05 µM in assay [2]; 0.05 to 0.5 µM in assay [3]; 0.05 to 0.5 µM in assay [4]; 0.05 to 0.5 µM in assay [5]; 0.05 to 0.5 µM in assay [6].

Take `C=Cc1cnc(Nc2cc(CC)c(N3CCC(N4CCN(C)CC4)CC3)cc2OC(F)(F)F)nc1Nc1ccc2nccnc2c1P(C)(C)=O` [Compound I-6]: the GI50 in assay [1] was ≤ 0.05 µM; in assay [2] it was ≤ 0.05 µM; in assay [3] it was 0.05 to 0.5 µM; in assay [4] it was ≤ 0.05 µM; in assay [5], ≤ 0.05 µM; in assay [6], ≤ 0.05 µM.

Regarding `CCc1cc(Nc2ncc(/C=C/c3ccccc3)c(Nc3ccc4nccnc4c3P(C)(C)=O)n2)c(OC)cc1N1CCC(N2CCN(C)CC2)CC1` [Compound I-14], the GI50 in assay [1] is 0.5 to 2.5 µM; in assay [2], ≤ 0.05 µM; in assay [3] it was 0.05 to 0.5 µM; in assay [4] it was 0.05 to 0.5 µM; in assay [5] it was 0.05 to 0.5 µM; in assay [6], 0.05 to 0.5 µM.

With `C=Cc1cnc(Nc2cc(CC)c(N3CCC(N4CCN(C)CC4)CC3)nc2OC)nc1Nc1ccc2nccnc2c1S(=O)(=O)NC` [IV-4], the GI50 in assay [1] fell in the range of 0.05 to 0.5 µM; in assay [2], 0.5 to 2.5 µM; in assay [3], 0.5 to 2.5 µM; in assay [4], 0.05 to 0.5 µM; in assay [5], 0.05 to 0.5 µM; in assay [6], 0.5 to 2.5 µM.

On to `C=Cc1cnc(Nc2ccc(N3CCC(N4CCN(C)CC4)CC3)c(F)c2F)nc1Nc1ccc2nccnc2c1S(=O)(=O)NC` [IV-10], for which the GI50 is ≤ 0.05 µM in assay [1]; 0.05 to 0.5 µM in assay [2]; 0.05 to 0.5 µM in assay [3]; 0.05 to 0.5 µM in assay [4]; 0.05 to 0.5 µM in assay [5]; 0.05 to 0.5 µM in assay [6].

With `C=C(C)c1cnc(Nc2ccc(N3CCC(N4CCN(C)CC4)CC3)nc2OC)nc1Nc1ccc2nccnc2c1P(C)(C)=O` [Compound I-19], the GI50 in assay [1] is ≤ 0.05 µM; in assay [2], 0.05 to 0.5 µM; in assay [3], ≤ 0.05 µM; in assay [4] it was 0.05 to 0.5 µM; in assay [5] it was 0.05 to 0.5 µM; in assay [6] it was 0.5 to 2.5 µM.
